In ChEMBL document CHEMBL5375957, “Optimization of Novel α7 Nicotinic Acetylcholine Receptor Positive Allosteric Modulators and the Discovery of a Preclinical Development Candidate Molecule (RGH-560)” (J Med Chem, 2023):
pEC50: −log10 of the molar value. ≈ marks a conversion by molar mass, not a printed value.

Assays:
[1] = Kinetic solubility of compound at pH 7.4 incubated for 2 hrs by UV-HPLC analysis; type: physicochemical; details: buffer, read-out: Kinetic_solubility
[2] = target: T1, Neuronal acetylcholine receptor subunit alpha-7 (Homo sapiens, UniProt P36544); assay: Positive allosteric modulator activity at human alpha7 nAChR expressed in Flp-In HEK293 cells assessed as increase in calcium influx incubated for 10 mins by fluorescence based analysis; type: cell-based
T1 sequence (P36544 whole entry): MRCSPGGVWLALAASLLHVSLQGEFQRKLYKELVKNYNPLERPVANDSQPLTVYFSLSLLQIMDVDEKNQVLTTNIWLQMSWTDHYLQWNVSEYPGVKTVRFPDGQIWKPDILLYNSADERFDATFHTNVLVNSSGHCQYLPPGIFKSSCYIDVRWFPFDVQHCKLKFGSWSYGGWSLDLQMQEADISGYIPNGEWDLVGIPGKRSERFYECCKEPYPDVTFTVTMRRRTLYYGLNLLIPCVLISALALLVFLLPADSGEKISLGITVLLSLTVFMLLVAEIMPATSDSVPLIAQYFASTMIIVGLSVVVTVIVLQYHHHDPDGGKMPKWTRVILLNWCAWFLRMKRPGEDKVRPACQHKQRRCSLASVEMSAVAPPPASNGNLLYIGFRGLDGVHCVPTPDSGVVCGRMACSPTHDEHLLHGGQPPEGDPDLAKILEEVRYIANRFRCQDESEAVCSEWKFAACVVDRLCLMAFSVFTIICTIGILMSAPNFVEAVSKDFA

[3] = Metabolic stability in human liver microsome assessed as intrinsic clearance measured per mg of protein incubated for 40 mins; type: ADME; details: liver microsomes, read-out: CLH
[4] = Metabolic stability in Wistar rat liver microsome assessed as intrinsic clearance measured per mg of protein incubated for 40 mins; type: ADME; details: liver microsomes, read-out: CLH
[5] = Metabolic stability in NMRI mouse liver microsome assessed as intrinsic clearance measured per mg of protein incubated for 40 mins; type: ADME; details: liver microsomes, read-out: CLH
[6] = target: T1, Neuronal acetylcholine receptor subunit alpha-7; assay: Positive allosteric modulator activity at human alpha7 nAChR expressed in Flp-In HEK293 cells assessed as increase in calcium influx at 10 uM incubated for 10 mins by fluorescence based analysis relative to control; type: cell-based
[7] = filed as positive allosteric modulator

Compound | solubility kinetic at 2 h [1] | pEC50 [2] | microsomal CLint [3] | microsomal CLint [4] | microsomal CLint [5] | Emax [6] | Emax [6, 7]
Cn1ccc2cc(CNC(=O)N3CC(COc4ccc(F)cc4F)C3)ccc21 | 45.5 µM (≈ 17.5 µg/mL) | 6.57 | 48 µL/min/mg | – | – | – | –
Cn1ccc2cc(CNC(=O)N3CC(COc4ccc(Cl)c(Cl)c4)C3)ccc21 | 0.5 µM (≈ 0.209 µg/mL) | 7.10 | 61 µL/min/mg | – | – | – | –
Cc1[nH]c2ccc(CNC(=O)N3CC4(CC(=O)c5ccccc5O4)C3)cc2c1Cl | 10 µM (≈ 4.1 µg/mL) | 6.34 | – | – | – | – | –
O=C1CC2(CN(C(=O)NCc3ccc4[nH]c(Cl)cc4c3)C2)Oc2ccccc21 | 21.1 µM (≈ 8.35 µg/mL) | 6.64 | 22 µL/min/mg | 176 µL/min/mg | 178 µL/min/mg | – | –
Cn1ccc2cc(CNC(=O)N3CC(COc4ccc(C(F)(F)F)cn4)C3)ccc21 | 0.9 µM (≈ 0.377 µg/mL) | 7.40 | 61 µL/min/mg | – | – | – | –
Cn1ccc2cc(CNC(=O)N3CC(COc4ccc(C(F)(F)F)c(F)c4)C3)ccc21 | 0.2 µM (≈ 0.0871 µg/mL) | 7.35 | – | – | – | – | –
Cn1c(Cl)cc2cc(CNC(=O)N3CC(COc4ccc(C(F)(F)F)cc4)C3)ccc21 | 0.2 µM (≈ 0.0904 µg/mL) | – | – | – | – | 7% | –
O=C(NCc1ccc2[nH]c(C3CC3)cc2c1)N1CC(COc2ccc(C(F)(F)F)cc2)C1 | 1.9 µM (≈ 0.843 µg/mL) | – | 25 µL/min/mg | 56 µL/min/mg | – | 3% | –
O=C(NCc1ccc2[nH]ccc2c1)N1CC(COc2ccc(C(F)(F)F)nc2)C1 | 86.8 µM (≈ 35.1 µg/mL) | 5.96 | – | – | – | – | –
Cc1cc2cc(CNC(=O)N3CC4(CC(=O)c5cc(F)ccc5O4)C3)ccc2[nH]1 | 36.4 µM (≈ 14.3 µg/mL) | – | 18 µL/min/mg | 34 µL/min/mg | 51 µL/min/mg | – | –
Cn1c(C2CC2)cc2cc(CNC(=O)N3CC(COc4ccc(C(F)(F)F)cc4)C3)cnc21 | 0.3 µM (≈ 0.138 µg/mL) | – | – | – | – | 0% | –
Cn1ccc2cc(CNC(=O)N3CC(COc4ccc(F)c(F)c4)C3)ccc21 | 1.2 µM (≈ 0.462 µg/mL) | 6.82 | 46 µL/min/mg | – | – | – | –
Cn1c(C#N)cc2cc(CNC(=O)N3CC(COc4ccc(C(F)(F)F)cc4)C3)ccc21 | 2.4 µM (≈ 1.06 µg/mL) | – | – | – | – | 15% | –
Cn1ccc2cc(CNC(=O)N3CC(COc4ccc(F)c(C#N)c4)C3)ccc21 | 9.2 µM (≈ 3.61 µg/mL) | 6.23 | – | – | – | – | –
Cc1nnc(-c2cc3cc(CNC(=O)N4CC(COc5ccc(C(F)(F)F)cc5)C4)ccc3[nH]2)o1 | 5.1 µM (≈ 2.48 µg/mL) | – | 16 µL/min/mg | 14 µL/min/mg | – | 1% | –
COCc1cc2cc(CNC(=O)N3CC(COc4ccc(C(F)(F)F)cc4)C3)cnc2[nH]1 | 2.9 µM (≈ 1.3 µg/mL) | – | 43 µL/min/mg | 48 µL/min/mg | – | 30% | –
Cc1cc2cc(CNC(=O)N3CC4(CC(=O)c5cc(F)cc(F)c5O4)C3)ccc2[nH]1 | 30.9 µM (≈ 12.7 µg/mL) | – | 8 µL/min/mg | 80 µL/min/mg | 121 µL/min/mg | – | –
O=C(NCc1ccc2[nH]ccc2c1)N1CC(COc2ccc(C(F)(F)F)cn2)C1 | 78.1 µM (≈ 31.6 µg/mL) | 6.82 | 37 µL/min/mg | 63 µL/min/mg | 78 µL/min/mg | – | –
Cn1cc(F)c2cc(CNC(=O)N3CC(COc4ccc(C(F)(F)F)nc4)C3)ccc21 | 0.1 µM (≈ 0.0436 µg/mL) | 7.26 | 107 µL/min/mg | – | – | – | –
Cc1cc2cc(CNC(=O)N3CC(COc4ccc(C(F)(F)F)cc4)C3)ccc2[nH]1 | 2 µM (≈ 0.835 µg/mL) | 7.82 | 29 µL/min/mg | 34 µL/min/mg | 94 µL/min/mg | – | –
Cn1cc(Cl)c2cc(CNC(=O)N3CC(COc4ccc(C(F)(F)F)cc4)C3)cnc21 | 7.2 µM (≈ 3.26 µg/mL) | 6.41 | 97 µL/min/mg | – | – | – | –
Cn1cc(Cl)c2cc(CNC(=O)N3CC4(CC(=O)c5ccccc5O4)C3)ccc21 | 9.7 µM (≈ 3.98 µg/mL) | – | 128 µL/min/mg | – | – | – | –
Cn1ccc2cc(CNC(=O)N3CC(COc4ccc(C(F)(F)F)nc4)C3)ccc21 | 1.8 µM (≈ 0.753 µg/mL) | 6.57 | 27 µL/min/mg | – | – | – | –

Compound | solubility kinetic at 2 h [1] | pEC50 [2] | microsomal CLint [3] | microsomal CLint [4] | microsomal CLint [5] | Emax [6] | Emax [6, 7]
NC(=O)c1cc2cc(CNC(=O)N3CC(COc4ccc(C(F)(F)F)cc4)C3)ccc2[nH]1 | 6.9 µM (≈ 3.08 µg/mL) | – | – | – | – | 0% | –
O=C(NCc1cnc2[nH]ccc2c1)N1CC(COc2ccc(C(F)(F)F)cc2)C1 | 49.9 µM (≈ 20.2 µg/mL) | 5.51 | – | – | – | – | –
Cn1ccc2cc(CNC(=O)N3CC(COc4ccc(F)cc4C#N)C3)ccc21 | 31 µM (≈ 12.2 µg/mL) | 5.55 | – | – | – | – | –
CC(C)n1ccc2cc(CNC(=O)N3CC(COc4ccc(C(F)(F)F)cc4)C3)ccc21 | 0.9 µM (≈ 0.401 µg/mL) | – | – | – | – | 1% | –
COCCc1cc2cc(CNC(=O)N3CC(COc4ccc(C(F)(F)F)cc4)C3)ccc2n1C | 0.1 µM (≈ 0.0476 µg/mL) | – | – | – | – | 0% | –
O=C(NCc1ccc2[nH]cc(Cl)c2c1)N1CC(COc2ccc(C(F)(F)F)cc2)C1 | 12 µM (≈ 5.25 µg/mL) | 6.30 | 25 µL/min/mg | 23 µL/min/mg | 43 µL/min/mg | – | –
Cn1cc(C#N)c2cc(CNC(=O)N3CC(COc4ccc(C(F)(F)F)cc4)C3)cnc21 | 20.4 µM (≈ 9.05 µg/mL) | – | 49 µL/min/mg | 38 µL/min/mg | – | 20% | –
Cn1cc(C#N)c2cc(CNC(=O)N3CC(COc4ccc(C(F)(F)F)cc4)C3)ccc21 | 5.3 µM (≈ 2.34 µg/mL) | 5.66 | 43 µL/min/mg | – | – | – | –
Cn1c(Cl)cc2cc(CNC(=O)N3CC(COc4ccc(C(F)(F)F)cc4)C3)cnc21 | 0.2 µM (≈ 0.0906 µg/mL) | – | – | – | – | 4% | –
Cc1ccc(OCC2CN(C(=O)NCc3ccc4[nH]c(C)c(C)c4c3)C2)cc1 | 13.4 µM (≈ 5.06 µg/mL) | 6.31 | 323 µL/min/mg | – | – | – | –
CCn1ccc2cc(CNC(=O)N3CC(COc4ccc(C(F)(F)F)cc4)C3)ccc21 | 0.2 µM (≈ 0.0863 µg/mL) | – | 28 µL/min/mg | – | – | – | 83%
Cn1ccc2cc(CNC(=O)N3CC(COc4ccc(Cl)cc4)C3)cnc21 | 61.1 µM (≈ 23.5 µg/mL) | 6.44 | 34 µL/min/mg | 53 µL/min/mg | 57 µL/min/mg | – | –
O=C(NCc1cnc2[nH]c(Cl)cc2c1)N1CC(COc2ccc(C(F)(F)F)cc2)C1 | 4.5 µM (≈ 1.97 µg/mL) | 6.59 | 29 µL/min/mg | – | – | – | –
O=C1CC2(CN(C(=O)NCc3ccc4[nH]ccc4c3)C2)Oc2ccccc21 | 87.1 µM (≈ 31.5 µg/mL) | – | – | – | – | – | 58%
Cc1cn(C)c2ncc(CNC(=O)N3CC(COc4ccc(C(F)(F)F)cc4)C3)cc12 | 14.2 µM (≈ 6.14 µg/mL) | 5.92 | – | – | – | – | –
Cn1cc(Cl)c2cc(CNC(=O)N3CC(COc4ccc(C(F)(F)F)cc4)C3)ccc21 | < 0.1 µM | 6.70 | 30 µL/min/mg | 96 µL/min/mg | 140 µL/min/mg | – | –
O=C(NCc1ccc2[nH]ccc2c1)N1CC(COc2ccc(C(F)(F)F)cc2F)C1 | 16.3 µM (≈ 6.87 µg/mL) | 6.60 | 24 µL/min/mg | 39 µL/min/mg | 47 µL/min/mg | – | –
Cc1cc2cc(CNC(=O)N3CC4(CC(=O)c5ccccc5O4)C3)ccc2[nH]1 | 51.5 µM (≈ 19.3 µg/mL) | 6.85 | 11 µL/min/mg | 52 µL/min/mg | 100 µL/min/mg | – | –
Cc1cc2cc(CNC(=O)N3CC(COc4ccc(C(F)(F)F)cc4)C3)cnc2n1C | 0.6 µM (≈ 0.259 µg/mL) | 6.52 | 54 µL/min/mg | – | – | – | –
Cc1ccc(OCC2CN(C(=O)NCc3ccc4[nH]c5c(c4c3)CCCC5)C2)cc1 | 4.4 µM (≈ 1.78 µg/mL) | – | – | – | – | 1% | –
Cc1cc2cc(CNC(=O)N3CC(COc4ccc(C(F)(F)F)cc4)C3)ccc2n1C | – | 7.15 | 41 µL/min/mg | – | – | – | –
O=C(NCc1ccc2c(ccn2CC(F)(F)F)c1)N1CC(COc2ccc(C(F)(F)F)cc2)C1 | 0.6 µM (≈ 0.291 µg/mL) | – | – | – | – | 3% | –
O=C(NCc1ccc2[nH]c(C(F)F)cc2c1)N1CC(COc2ccc(C(F)(F)F)cc2)C1 | 41 µM (≈ 18.6 µg/mL) | 6.66 | 27 µL/min/mg | 23 µL/min/mg | – | – | –
